Literature values, collected in patent EP3854384A1, “PHARMACEUTICAL FORMULATION COMPRISING ABIRATERONE ACETATE” (Adamed Pharma S.A., priority 2020, dated 2021).

Conditions: low water solubility and low intestinal permeability

With `CC(=O)O[C@H]1CC[C@@]2(C)C(=CC[C@@H]3[C@@H]2CC[C@]2(C)C(c4cccnc4)=CC[C@@H]32)C1` [Abiraterone acetate, (3β)-17-(3-pyridinyl)androsta-5,16-dien-3-yl acetate] as the compound, how does the “Biopharmaceutical Classification System (BCS) class” value read?
The value was “class IV”.
